Columns and labels:
[1] = molecular target: B41 SOSIP.664 gp140 trimer (Human immunodeficiency virus type 1, UniProt B3UES2, A505C/E513R/I563P/INS515RR/K514R/T609C); format: binding, HIV-1
[2] = Cellular toxicity (Cell Counting Kit-8); format: cell-based, Human; details: human, U87.CD4.CCR5/CXCR4 cells; 48 h, CCK-8, 0.1–1000 µM
Procedure: (§1) The viability of the U87.CD4.CCR5/CXCR4 cells was determined using the Cell Counting Kit-8 cell proliferation and cytotoxicity assay (Dojindo Molecular Technologies, Rockville, MD, USA) per the manufacturer’s instructions. U87.CD4.CCR5/CXCR4 cells (1.2 × 10^4 cells/well) were seeded in 96-well tissue culture plates (Olympus Plastics, San Diego, CA, USA). After 24 h, cells were treated with compound (0.1–1000 µM) or DMSO (Sigma) for 48 h at 37 °C. Subsequently, 10 µL of the CCK-8 solution was added to each well and incubated for 4 h at 37 °C. Following the 4 h incubation, the absorbance at 450 nm was measured in a Multiskan™ GO Microplate Spectrophotometer (Thermo Scientific). Untreated cells were used as a background control and 0.1% SDS treated cells were used as a positive control.

U87.CD4.CCR5/CXCR4 cells = assay: Cellular toxicity (Cell Counting Kit-8); format: cell-based, Human; details: CC50 / median IC50
Procedure: as §1

[3] = test system: HIV-1B41 Env pseudotyped HIV-1; assay: Single-round infection assay, B41 Env pseudotyped virus; details: Human immunodeficiency virus 1, U87/CD4/CCR5, 48 h, read-out: IC50 B41
[4] = test system: HIV-1YU-2 Env pseudotyped HIV-1; assay: Single-round infection assay, YU-2 Env pseudotyped virus; details: Human immunodeficiency virus 1, U87/CD4/CCR5, 48 h, read-out: IC50 YU-2
[5] = test system: HIV-1HxBc2 Env pseudotyped HIV-1; assay: Single-round infection assay, HxBc2 Env pseudotyped virus; details: Human immunodeficiency virus 1, U87.CD4.CXCR4, 48 h, read-out: IC50 HxBc2
[6] = test system: HIV-1JRCSF Env pseudotyped HIV-1; assay: Single-round infection assay, JRCSF Env pseudotyped virus; details: Human immunodeficiency virus 1, U87/CD4/CCR5, 48 h, read-out: IC50 JRCSF
[7] = test system: HIV-1B41, HIV-1HxBc2, HIV-1JRCSF, HIV-1JRFL, and HIV-1YU-2 Env pseudotyped HIV-1; assay: Single-round infection assay, summary over the five Env pseudotypes; details: Human immunodeficiency virus 1, read-out: Median IC50
[8] = test system: HIV-1JRFL Env pseudotyped HIV-1; assay: Single-round infection assay, JRFL Env pseudotyped virus; details: Human immunodeficiency virus 1, U87/CD4/CCR5, 48 h, read-out: IC50 JRFL

| Structure (SMILES) | ka [1] | kd [1] | CC50 at 48 h [2] | Therapeutic Index (CC50/IC50) (U87.CD4.CCR5/CXCR4 cells) | IC50 [3] | IC50 [4] | IC50 [5] | IC50 [6] | IC50 [7] | IC50 [8] | improvement in KD (affinity) in comparison to parental SC28 [1] | SPR surface saturation ([1]; 12.5 µM and 6.25 µM, 13000 RUs trimer immobilized, theoretical Rmax 41 RUs) | increase of ka parameter in comparison to SC28 ([1]; SPR) |
| --- | --- | --- | --- | --- | --- | --- | --- | --- | --- | --- | --- | --- | --- |
| COc1cnc(-n2cnc(C)n2)c2[nH]cc(C(=O)C(=O)N3CC(CCC(=O)c4ccccc4)C3)c12 [SC15] | 3.01 ± 0.188 × 10^5 M^−1s^−1 | 5.44 ± 0.677 × 10^−3 s^−1 |  |  |  |  |  |  |  |  |  |  |  |
| C=C(C(=O)NC1C2CN(C(=O)c3ccccc3)CC21)n1ccc2c(-n3cnc(C)n3)nc3ccnn3c21 (stereo not shown) [SC52, N-(3-benzoyl-3-azabicyclo[3.1.0]hexan-6-yl)-2-(5-(3-methyl-1H-1,2,4-triazol-1-yl)-8H-pyrazolo[1,5-a]pyrrolo[3,2-e]pyrimidin-8-yl)acrylamide] |  |  | 9200 ± 1100 nM | 8.65 | 430 ± 100 nM | 1350 ± 440 nM | 440 ± 170 nM | 2020 ± 250 nM | 1060 ± 668 nM |  |  |  |  |
| Nc1nc(-c2ccc(F)c3c(C(=O)C(=O)NC4C5CN(C(=O)c6ccccc6)CC54)c[nH]c23)no1 (stereo not shown) [SC55, 2-(7-(5-amino-1,2,4-oxadiazol-3-yl)-4-fluoro-1H-indol-3-yl)-N-(3-benzoyl-3-azabicyclo[3.1.0]hexan-6-yl)-2-oxoacetamide] |  |  | 73000 ± 14000 nM | 75.85 | 2020 ± 810 nM | 1150 ± 810 nM | 730 ± 560 nM | 450 ± 350 nM | 960 ± 590 nM | 450 ± 330 nM |  |  |  |
| COc1cnc(-n2cnc(C)n2)c2[nH]cc(C(=O)C(=O)NC3C4CN(C(=O)c5ccccc5)CC43)c12 (stereo not shown) [SC28] | 1.39 ± 0.14 × 10^4 M^−1s^−1 | 6.99 ± 0.43 × 10^−3 s^−1 | 190000 ± 54000 nM | 1291.21 | 35 ± 6.2 nM | 480 ± 50 nM | 21 ± 5 nM | 26 ± 9 nM | 150 ± 170 nM | 170 ± 50 nM |  |  |  |
| COc1cnc(-n2cnc(C)n2)c2[nH]cc(C(=O)C(=O)N3CC4CN(C(=O)c5ccccc5)CC4C3)c12 (stereo not shown) [SC11] | 3.83 ± 1.12 × 10^3 M^−1s^−1 | 5.02 ± 2.67 × 10^−4 s^−1 |  |  |  |  |  |  |  |  |  |  |  |
| COc1cnc(-n2cnc(C)n2)c2[nH]cc(C(=O)C(=O)N3CC=C(CNC(=O)c4ccccc4)CC3)c12 [SC45] | 1.38 ± 0.045 × 10^4 M^−1s^−1 | 1.52 ± 0.0294 × 10^−2 s^−1 |  |  |  |  |  |  |  |  |  |  |  |
| COc1ccc(-c2noc(N)n2)c2[nH]cc(C(=O)C(=O)NC3C4CN(C(=O)c5ccccc5)CC43)c12 (stereo not shown) [SC56, 2-(7-(5-Amino-1,2,4-oxadiazol-3-yl)-4-methoxy-1H-indol-3-yl)-N-(3-benzoyl-3-azabicyclo[3.1.0]hexan-6-yl)-2-oxoacetamide] | 1.22 ± 0.067 × 10^7 M^−1s^−1 | 6.39 ± 0.31 × 10^−3 s^−1 | 94000 ± 10000 nM | 1344.71 | 51 ± 8 nM | 110 ± 49 nM | 11 ± 3 nM | 46 ± 9 nM | 69.8 ± 45 nM | 130 ± 15 nM | 1000 fold | saturate the surface | 1000 factor |
| O=C(NC1C2CN(C(=O)c3ccccc3)CC21)C(=O)c1c[nH]c2c(-c3cccnc3)ncc(F)c12 (stereo not shown) [SC50] |  |  | 120000 ± 18000 nM | 6.63 | 7100 ± 4200 nM | 22600 ± 4200 nM | 6900 ± 5200 nM | 28900 ± 5620 nM | 18000 ± 9000 nM | 24300 ± 6200 nM |  |  |  |
| CNC(=O)c1ncc(OC)c2c(C(=O)C(=O)NC3C4CN(C(=O)c5ccccc5)CC43)c[nH]c12 (stereo not shown) [SC49] | 9.49 ± 1.6 × 10^2 M^−1s^−1 | 3.43 ± 0.36 × 10^−2 s^−1 | 326000 ± 81000 nM | 7.31 | 26000 ± 19000 nM | 57200 ± 26500 nM | 62000 ± 1400 nM |  | 45000 ± 15000 nM | 33300 ± 11600 nM |  |  |  |

Reference: paper PMC6514670, “Field-Based Affinity Optimization of a Novel Azabicyclohexane Scaffold HIV-1 Entry Inhibitor” (Molecules, 2019)
